Source: patent US20100111992A1, “CYTOM[…] AND METHODS OF USE THEREOF” (THE REGENTS OF THE UNIVERSITY OF CALIFORNIA, priority 2006, published 2010)

What was measured:
Assay type in all cases: cell-based, human
PD-1 = PD-1 Taqman; details: for ΔCT (BB008) / ΔΔCT(BB008): Donor BB008; for ΔCT (BB008): No Pep 6.4; for ΔΔCT(BB008) / ΔΔCT(BB011) / ΔΔCT(BB013) / ΔΔCT(CMV001): relative to No Pep; for ΔCT (BB011) / ΔΔCT(BB011): Donor BB011; for ΔCT (BB011): No Pep 3.57; for ΔCT(BB013) / ΔΔCT(BB013): Donor BB013; for ΔCT(BB013): No Pep 4.745; for ΔCT(CMV001) / ΔΔCT(CMV001): Donor CMV001; for ΔCT(CMV001): No Pep 5.08
PD-L1 (a PD-1 ligand) = experiment: Surface expression of PD-L1; details: Donor CMV001 vs Donor BB008, FIG. 10
PD-L2 (a PD-1 ligand) = experiment: Surface expression of PD-L2; details: Donor CMV001 vs Donor BB008, FIG. 11
[1] = test system: CD4+ induced cells (antigen-stimulated T effector cells); experiment: Proliferation assay of CD4+ induced cells (3H incorporation); details: for stimulation index: as compared to cells without peptide
Protocol: (§1) These experiments focus on confirming the in vitro recognition of the novel class I and class II CMV epitopes predicted to be strong MHC binders by validated computer algorithms using T cells from CMV-positive healthy donors. Phenotypical analysis of CD4+ T cell effectors included a marker of activation (CD69) as well as T cell inflammatory cytokines (TNFα, IFNγ, and IL-2). Functional analysis of CD4+ and CD8+ T cell effectors was measured by proliferative epitope-specific responses via ^3H incorporation and IFNγ expression measured by ELISA, respectively.
Wells are then pulsed with 1 μCi of ^3H for the last 18 hours. Proliferation is then measured by calculating the absorption of ^3H on a beta counter. PHA is a positive control while APCs alone are the negative control. This translates into stimulation indices of 30 and 45.8 in antigen-specific proliferation assays as compared to cells without peptide.
Antigen-stimulated T effector cells are incubated with autologous, irradiated total peripheral blood mononuclear cells for 96 hours. Wells are pulsed with 1 μCi of ^3H for the last 18 hours. Proliferation is then measured by calculating the absorption of ^3H on a beta counter. APCs alone are the negative control.
Data from the six donors SA001, SA005, SA006, BB006, BB008, CMV001, BB011, and BB013 are shown. No peptide versus 3DR (P<0.001); no peptide versus 4DR (P<0.05); 1DR versus 3DR (P<0.05); 2DR versus 3DR (P<0.01); and 3DR versus 6DR (P<0.05).

enriched CD4+ cells = experiment: Intracellular IL-2 expression in enriched CD4+ cells; details: for expression of IL-2 as compared to no peptide: FIG. 2, in words; for expression of IL-2 in CD4+ cells: FIG. 2, day 17, cells without peptide 3.18%
Protocol: as §1
Enriched CD4+ cells are incubated with peptide-pulsed irradiated autologous PBMCs, restimulated with peptide on day 7, stimulated with low-dose IL-2 (20 U/ml) on day 9, and then evaluated for intracellular cytokine production on day 17. FIG. 2A illustrates no peptide, while FIGS. 2B and 2C show stimulation by peptides 1DR and 4DR, respectively.

enriched CD4 cells = experiment: Intracellular TNFα in CD4 cells (FACS); details: for immunogenicity (reflected by increased TNFα), CMV-infected subject vs healthy CMV+ subject: Donor CMV001 vs Donor BB008, FIG. 7; for TNFα synthesis as compared to control: FIG. 4, donors SA005 and SA006, in words; for TNFα stimulation (FACS data): over multiple HLA-type donors; for immunogenicity reflected by TNFα: six donors
Protocol: as §1
In addition, these cells are all chemokine receptor CCR7 negative, reflecting their T effector status.
Enriched CD4 cells are incubated with peptide-pulsed irradiated autologous peripheral blood mononuclear cells, restimulated with peptide on day 7, stimulated with low-dose IL-2 (20 U/ml) on day 10 and 14, and then evaluated for intracellular cytokine production on day 17.

CD4+ T cell effectors = experiment: IFNg in CD4 cells (FACS); details: for immunogenicity (reflected by increased IFNg), CMV-infected subject vs healthy CMV+ subject: Donor CMV001 vs Donor BB008, FIG. 8; for IFNg stimulation (FACS data): over multiple HLA-type donors; for immunogenicity reflected by IFNg: six donors
Protocol: as §1

[2] = test system: PD-1 (programmed cell death-1); experiment: Surface expression of PD-1; details: Donor CMV001 vs Donor BB008, FIG. 9
Excerpt: This correlates with latency versus infection in the two subjects.

CD8+ T cell effectors = experiment: IFNγ expression measured by ELISA, CD8+ T cell effectors (class I peptides)
Protocol: as §1, with “As such, these” for “These”, “confirming that” for “confirming”
as §1

[3] = FIG. 1, 96 hours with autologous irradiated PBMCs, 3H last 18 hours
[4] = excluding CMV-infected subject (CMV001), FIG. 12
[5] = including CMV-infected subject (CMV001), FIG. 13

Sequence: MISVLGPISGHVLKA [2DR, human CMV pp65-derived class II peptide, Human (DRB1)]
- ΔCT (BB008) (PD-1): 5.525
- ΔΔCT(BB008) (PD-1): −0.875
- ΔCT (BB011) (PD-1): 2.94
- ΔΔCT(BB011) (PD-1): −0.63
- ΔCT(BB013) (PD-1): 5.26
- ΔΔCT(BB013) (PD-1): 0.515
- ΔCT(CMV001) (PD-1): 5.005
- ΔΔCT(CMV001) (PD-1): −0.075

Sequence: AGILARNLVPMVATV [6DR, human CMV pp65-derived class II peptide, Human (DRB1)]
- surface expression of PD-L1, CMV-infected subject vs healthy CMV+ subject (PD-L1 (a PD-1 ligand)): more surface expression of PD-L1
- surface expression of PD-L2, CMV-infected subject vs healthy CMV+ subject (PD-L2 (a PD-1 ligand)): more surface expression of PD-L2
- ΔCT (BB011) (PD-1): 3.845
- ΔΔCT(BB011) (PD-1): 0.275
- ΔCT(BB013) (PD-1): 5.05
- ΔΔCT(BB013) (PD-1): 0.305

Sequence: MSIYVYALPLKMLNI [1DR, human CMV pp65-derived class II peptide, Human (DRB1)]
- proliferation, counts per minute [1, 3]: 10,201 cpm
- stimulation index ([1]; FIG. 1): 30
- expression of IL-2 as compared to no peptide (enriched CD4+ cells): stimulate expression of IL-2
- expression of IL-2 in CD4+ cells (enriched CD4+ cells): 39.58%
- immunogenicity (reflected by increased TNFα), CMV-infected subject vs healthy CMV+ subject (enriched CD4 cells): greater than in a healthy CMV+ subject
- TNFα synthesis as compared to control (enriched CD4 cells): stimulate TNFα synthesis
- expression of TNFα in CD4 cells (enriched CD4 cells; donor SA005): 15.9%
- TNFα stimulation (FACS data) (enriched CD4 cells): peptide-specific TNFα and IFNg stimulation
- immunogenicity reflected by TNFα (enriched CD4 cells; [4]): increased TNFα and IFNg
- immunogenicity reflected by TNFα (enriched CD4 cells; [5]): increased TNFα and IFNg
- immunogenicity (reflected by increased IFNg), CMV-infected subject vs healthy CMV+ subject (CD4+ T cell effectors): greater than in a healthy CMV+ subject
- IFNg stimulation (FACS data) (CD4+ T cell effectors): peptide-specific TNFα and IFNg stimulation
- immunogenicity reflected by IFNg (CD4+ T cell effectors; [4]): increased TNFα and IFNg
- immunogenicity reflected by IFNg (CD4+ T cell effectors; [5]): increased TNFα and IFNg
- surface expression of PD-1, CMV-infected subject vs healthy CMV+ subject [2]: more surface expression of PD-1
- surface expression of PD-L1, CMV-infected subject vs healthy CMV+ subject (PD-L1 (a PD-1 ligand)): more surface expression of PD-L1
- surface expression of PD-L2, CMV-infected subject vs healthy CMV+ subject (PD-L2 (a PD-1 ligand)): more surface expression of PD-L2
- ΔCT (BB008) (PD-1): 5.385
- ΔΔCT(BB008) (PD-1): −1.015
- ΔCT (BB011) (PD-1): 3.67
- ΔΔCT(BB011) (PD-1): 0.1
- ΔCT(BB013) (PD-1): 5.74
- ΔΔCT(BB013) (PD-1): 0.995
- ΔCT(CMV001) (PD-1): 3.635
- ΔΔCT(CMV001) (PD-1): −1.445

Sequence: HVRVSQPSLILVSQY [3DR, human CMV pp65-derived class II peptide, Human (DRB1)]
- stimulation index ([1]; first of two CMV+ healthy donors (FIG. 3)): 83.05
- proliferation, counts per minute ([1]; first of two CMV+ healthy donors (FIG. 3; presumably Donor SA005)): 30,231.67 cpm
- stimulation index ([1]; second of two CMV+ healthy donors (FIG. 3)): 147.03
- proliferation, counts per minute ([1]; second of two CMV+ healthy donors (FIG. 3; presumably Donor SA006)): 49,648.33 cpm
- functional response (proliferation data) ([1]; summary in words): leads to a functional response
- immunogenicity (reflected by increased TNFα), CMV-infected subject vs healthy CMV+ subject (enriched CD4 cells): greater than in a healthy CMV+ subject
- expression of TNFα in CD4 cells (enriched CD4 cells; donor not given): 34.58%
- TNFα stimulation (FACS data) (enriched CD4 cells): peptide-specific TNFα and IFNg stimulation
- immunogenicity reflected by TNFα (enriched CD4 cells; [4]): increased TNFα and IFNg
- immunogenicity (reflected by increased IFNg), CMV-infected subject vs healthy CMV+ subject (CD4+ T cell effectors): greater than in a healthy CMV+ subject
- IFNg stimulation (FACS data) (CD4+ T cell effectors): peptide-specific TNFα and IFNg stimulation
- immunogenicity reflected by IFNg (CD4+ T cell effectors; [4]): increased TNFα and IFNg
- surface expression of PD-1, CMV-infected subject vs healthy CMV+ subject [2]: more surface expression of PD-1
- ΔCT (BB008) (PD-1): 5.635
- ΔΔCT(BB008) (PD-1): −0.765
- ΔCT (BB011) (PD-1): 4.08
- ΔΔCT(BB011) (PD-1): 0.51
- ΔCT(BB013) (PD-1): 5.995
- ΔΔCT(BB013) (PD-1): 1.25
- ΔCT(CMV001) (PD-1): 2.545
- ΔΔCT(CMV001) (PD-1): −2.535

Sequence: SGKLFMHVTLGSDVE [5DR, human CMV pp65-derived class II peptide, Human (DRB1)]
- surface expression of PD-L1, CMV-infected subject vs healthy CMV+ subject (PD-L1 (a PD-1 ligand)): more surface expression of PD-L1
- surface expression of PD-L2, CMV-infected subject vs healthy CMV+ subject (PD-L2 (a PD-1 ligand)): more surface expression of PD-L2
- ΔCT (BB008) (PD-1): 6.26
- ΔΔCT(BB008) (PD-1): −0.14
- ΔCT (BB011) (PD-1): 3.97
- ΔΔCT(BB011) (PD-1): 0.4
- ΔCT(BB013) (PD-1): 6.73
- ΔΔCT(BB013) (PD-1): 1.985
- ΔCT(CMV001) (PD-1): 3.53
- ΔΔCT(CMV001) (PD-1): −1.55

Sequence: DVYYTSAFVFPTKDV [4DR]
- proliferation, counts per minute [1, 3]: 15,572 cpm
- stimulation index ([1]; FIG. 1): 45.8
- expression of IL-2 as compared to no peptide (enriched CD4+ cells): stimulate expression of IL-2
- expression of IL-2 in CD4+ cells (enriched CD4+ cells): 15.13%
- immunogenicity (reflected by increased TNFα), CMV-infected subject vs healthy CMV+ subject (enriched CD4 cells): greater than in a healthy CMV+ subject
- TNFα synthesis as compared to control (enriched CD4 cells): stimulate TNFα synthesis
- TNFα stimulation (FACS data) (enriched CD4 cells): peptide-specific TNFα and IFNg stimulation
- immunogenicity reflected by TNFα (enriched CD4 cells; [4]): increased TNFα and IFNg
- immunogenicity reflected by TNFα (enriched CD4 cells; [5]): increased TNFα and IFNg
- immunogenicity (reflected by increased IFNg), CMV-infected subject vs healthy CMV+ subject (CD4+ T cell effectors): greater than in a healthy CMV+ subject
- IFNg stimulation (FACS data) (CD4+ T cell effectors): peptide-specific TNFα and IFNg stimulation
- immunogenicity reflected by IFNg (CD4+ T cell effectors; [4]): increased TNFα and IFNg
- immunogenicity reflected by IFNg (CD4+ T cell effectors; [5]): increased TNFα and IFNg
- surface expression of PD-1, CMV-infected subject vs healthy CMV+ subject [2]: more surface expression of PD-1
- surface expression of PD-L1, CMV-infected subject vs healthy CMV+ subject (PD-L1 (a PD-1 ligand)): more surface expression of PD-L1
- surface expression of PD-L2, CMV-infected subject vs healthy CMV+ subject (PD-L2 (a PD-1 ligand)): more surface expression of PD-L2
- ΔCT (BB008) (PD-1): 1.185
- ΔΔCT(BB008) (PD-1): −5.215
- ΔCT (BB011) (PD-1): 3.345
- ΔΔCT(BB011) (PD-1): −0.225
- ΔCT(BB013) (PD-1): 4.57
- ΔΔCT(BB013) (PD-1): −0.175
- ΔCT(CMV001) (PD-1): 1.165
- ΔΔCT(CMV001) (PD-1): −3.915

Sequence: YTSAFVFPT [CMV65182-190, human CMV pp65-derived class I peptide, Human (A2)]
- immunogenicity among the class I peptides (CD8+ T cell effectors; IFNγ ELISA): most immunogenic
- IFNγ measured by ELISA (mean) (CD8+ T cell effectors; class I peptides, T cells from CMV-positive healthy donors): 1999 pg/mL
